Measured values taken from PubChem BioAssay AID1963975 (Molecular Pharmacology Branch, DTP, NCI, 2024).

System: 624824-186-R-J2-PDC multicell spheroids, viability
Experiment: Anticancer human tumor 624824-186-R-J2-PDC patient-derived colon adenocarcinoma cell line growth inhibition [PI3K]
Details: for IC50: curve of first compound; for viability, T/C: stronger effect = lower value
Summary of the method: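 High-throughput combination screen: PI3K inhibitors crossed with targeted small molecules on complex spheroids of tumor cells, HUVEC and MSCs at 37 degrees C, 5% CO2. Top concentration was at or near clinical Cmax (otherwise 10 microM), with half-log decrements.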

[1] = second compound 0.0316 µM, first compound 0.0316 µM
[2] = second compound 0.0316 µM, first compound 0.1 µM
[3] = second compound 0.0316 µM, first compound 0.316 µM
[4] = second compound 0.0316 µM, first compound 1 µM
[5] = second compound 0.0316 µM, first compound 3.16 µM
[6] = second compound 0.0316 µM, first compound 10 µM
[7] = second compound 0.1 µM, first compound 0.0316 µM
[8] = second compound 0.1 µM, first compound 0.1 µM
[9] = second compound 0.1 µM, first compound 0.316 µM
[10] = second compound 0.1 µM, first compound 1 µM
[11] = second compound 0.1 µM, first compound 3.16 µM
[12] = second compound 0.1 µM, first compound 10 µM
[13] = second compound 0.316 µM, first compound 0.0316 µM
[14] = second compound 0.316 µM, first compound 0.1 µM
[15] = second compound 0.316 µM, first compound 0.316 µM
[16] = second compound 0.316 µM, first compound 1 µM
[17] = second compound 0.316 µM, first compound 3.16 µM
[18] = second compound 0.316 µM, first compound 10 µM
[19] = second compound 1 µM, first compound 0.0316 µM
[20] = second compound 1 µM, first compound 0.1 µM
[21] = second compound 1 µM, first compound 0.316 µM
[22] = second compound 1 µM, first compound 1 µM
[23] = second compound 1 µM, first compound 3.16 µM
[24] = second compound 1 µM, first compound 10 µM
[25] = second compound 3.16 µM, first compound 0.0316 µM
[26] = second compound 3.16 µM, first compound 0.1 µM
[27] = second compound 3.16 µM, first compound 0.316 µM
[28] = second compound 3.16 µM, first compound 1 µM
[29] = second compound 3.16 µM, first compound 3.16 µM
[30] = second compound 3.16 µM, first compound 10 µM
[31] = second compound 10 µM, first compound 0.0316 µM
[32] = second compound 10 µM, first compound 0.1 µM
[33] = second compound 10 µM, first compound 0.316 µM
[34] = second compound 10 µM, first compound 1 µM
[35] = second compound 10 µM, first compound 3.16 µM
[36] = second compound 10 µM, first compound 10 µM
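Further: spheroids exposed to agents for 7 days before viability read.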
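Wherever viability, T/C is given: 100% = DMSO vehicle treated spheroids.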

**Q.** For `C#Cc1c(F)ccc2cc(O)cc(-c3ncc4c(N5CC6CCC(C5)N6)nc(OCC56CCCN5CC(F)C6)nc4c3F)c12` (centres undefined) + Cc1nc(NC(=O)N2CCCC2C(N)=O)sc1-c1ccnc(C(C)(C)C(F)(F)F)c1, which IC50 (second compound 0.0316 µM) is on record?
**A.** > 10 µM

**Q.** What about the IC50 (second compound 0.1 µM) of the same compound?
**A.** > 10 µM

**Q.** What about the IC50 (second compound 0.316 µM) of the same compound?
**A.** > 10 µM

**Q.** And the IC50 (second compound 1 µM)?
**A.** > 10 µM

**Q.** And the IC50 (second compound 3.16 µM)?
**A.** > 10 µM

**Q.** And the IC50 (second compound 10 µM)?
**A.** > 10 µM

**Q.** And the viability, T/C [1]?
**A.** 86.3%

**Q.** What about the viability, T/C [2] of the same compound?
**A.** 82.9%

**Q.** What about the viability, T/C [3] of the same compound?
**A.** 70.8%

**Q.** And the viability, T/C [4]?
**A.** 80.9%

**Q.** What about the viability, T/C [5] of the same compound?
**A.** 96.7%

**Q.** What about the viability, T/C [6] of the same compound?
**A.** 71%

**Q.** And the viability, T/C [7]?
**A.** 90.9%

**Q.** What about the viability, T/C [8] of the same compound?
**A.** 83.5%

**Q.** And the viability, T/C [9]?
**A.** 73%

**Q.** What about the viability, T/C [10] of the same compound?
**A.** 76.6%

**Q.** And the viability, T/C [11]?
**A.** 88.6%

**Q.** And the viability, T/C [12]?
**A.** 60.4%

**Q.** And the viability, T/C [13]?
**A.** 74.4%

**Q.** What about the viability, T/C [14] of the same compound?
**A.** 67.2%

**Q.** And the viability, T/C [15]?
**A.** 81.1%

**Q.** What about the viability, T/C [16] of the same compound?
**A.** 84.2%

**Q.** What about the viability, T/C [17] of the same compound?
**A.** 70.9%

**Q.** And the viability, T/C [18]?
**A.** 73.2%

**Q.** And the viability, T/C [19]?
**A.** 97%

**Q.** What about the viability, T/C [20] of the same compound?
**A.** 82.7%

**Q.** What about the viability, T/C [21] of the same compound?
**A.** 76.1%

**Q.** What about the viability, T/C [22] of the same compound?
**A.** 82.1%

**Q.** What about the viability, T/C [23] of the same compound?
**A.** 79.8%

**Q.** What about the viability, T/C [24] of the same compound?
**A.** 82.2%

**Q.** And the viability, T/C [25]?
**A.** 78.3%

**Q.** What about the viability, T/C [26] of the same compound?
**A.** 83.8%

**Q.** What about the viability, T/C [27] of the same compound?
**A.** 69.5%

**Q.** And the viability, T/C [28]?
**A.** 81.8%

**Q.** What about the viability, T/C [29] of the same compound?
**A.** 81.2%

**Q.** What about the viability, T/C [30] of the same compound?
**A.** 71.5%

**Q.** What about the viability, T/C [31] of the same compound?
**A.** 73.7%

**Q.** What about the viability, T/C [32] of the same compound?
**A.** 74.2%

**Q.** And the viability, T/C [33]?
**A.** 60%

**Q.** And the viability, T/C [34]?
**A.** 58.5%

**Q.** What about the viability, T/C [35] of the same compound?
**A.** 58%

**Q.** And the viability, T/C [36]?
**A.** 56.3%

**Q.** With `CC(Cn1ccc(-c2ccc(C#N)c(Cl)c2)n1)NC(=O)c1cc(C(C)O)[nH]n1` (centres undefined) + Cc1nc(NC(=O)N2CCCC2C(N)=O)sc1-c1ccnc(C(C)(C)C(F)(F)F)c1 as the compound, how does the IC50 (second compound 0.0316 µM) read?
**A.** > 10 µM

**Q.** And the IC50 (second compound 0.1 µM)?
**A.** > 10 µM

**Q.** And the IC50 (second compound 0.316 µM)?
**A.** > 10 µM

**Q.** And the IC50 (second compound 1 µM)?
**A.** > 10 µM

**Q.** And the IC50 (second compound 3.16 µM)?
**A.** > 10 µM

**Q.** And the IC50 (second compound 10 µM)?
**A.** > 10 µM

**Q.** And the viability, T/C [1]?
**A.** 85.3%

**Q.** And the viability, T/C [2]?
**A.** 111%

**Q.** And the viability, T/C [3]?
**A.** 70.8%

**Q.** What about the viability, T/C [4] of the same compound?
**A.** 92.2%

**Q.** What about the viability, T/C [5] of the same compound?
**A.** 93.3%

**Q.** What about the viability, T/C [6] of the same compound?
**A.** 114%

**Q.** What about the viability, T/C [7] of the same compound?
**A.** 102%

**Q.** What about the viability, T/C [8] of the same compound?
**A.** 76.3%

**Q.** What about the viability, T/C [9] of the same compound?
**A.** 74.3%

**Q.** And the viability, T/C [10]?
**A.** 76.6%

**Q.** What about the viability, T/C [11] of the same compound?
**A.** 88.2%

**Q.** What about the viability, T/C [12] of the same compound?
**A.** 90%

**Q.** And the viability, T/C [13]?
**A.** 96.9%

**Q.** And the viability, T/C [14]?
**A.** 90.5%

**Q.** And the viability, T/C [15]?
**A.** 86.1%

**Q.** And the viability, T/C [16]?
**A.** 76.9%

**Q.** What about the viability, T/C [17] of the same compound?
**A.** 82.5%

**Q.** And the viability, T/C [18]?
**A.** 85.7%

**Q.** And the viability, T/C [19]?
**A.** 88.6%

**Q.** What about the viability, T/C [20] of the same compound?
**A.** 69.9%

**Q.** And the viability, T/C [21]?
**A.** 71.5%

**Q.** What about the viability, T/C [22] of the same compound?
**A.** 71.6%

**Q.** And the viability, T/C [23]?
**A.** 87.9%

**Q.** And the viability, T/C [24]?
**A.** 86.9%

**Q.** And the viability, T/C [25]?
**A.** 80.5%

**Q.** What about the viability, T/C [26] of the same compound?
**A.** 93%

**Q.** And the viability, T/C [27]?
**A.** 89.7%

**Q.** What about the viability, T/C [28] of the same compound?
**A.** 78.7%

**Q.** What about the viability, T/C [29] of the same compound?
**A.** 80.2%

**Q.** And the viability, T/C [30]?
**A.** 84.7%

**Q.** What about the viability, T/C [31] of the same compound?
**A.** 64.8%

**Q.** What about the viability, T/C [32] of the same compound?
**A.** 65.2%

**Q.** What about the viability, T/C [33] of the same compound?
**A.** 74.8%

**Q.** And the viability, T/C [34]?
**A.** 61.4%

**Q.** And the viability, T/C [35]?
**A.** 69.6%

**Q.** And the viability, T/C [36]?
**A.** 66.6%
